The source made the active and inactive calls. The rule behind the calls is not given here.
Tests used:
Cholinesterase [1] = target: T1, Cholinesterase (Homo sapiens, UniProt P06276); experiment: Inhibition of human BuChE using butyrylthiocholine as substrate by Ellman's method
Cholinesterase [2] = target: Cholinesterase (Equus caballus, UniProt P81908); experiment: Inhibition of horse serum BuChE using butyrylthiocholine as substrate by Ellman's method
Cannabinoid receptor 2 = Cannabinoid receptor 2 (Homo sapiens, UniProt P34972); experiment: Displacement of [3H]-CP55940 from human CB2 receptor transfected in HEK-293EBNA cells after 90 mins by luminescence counting analysis; type: cell-based
Sequence of Cannabinoid receptor 2 (P34972 whole entry): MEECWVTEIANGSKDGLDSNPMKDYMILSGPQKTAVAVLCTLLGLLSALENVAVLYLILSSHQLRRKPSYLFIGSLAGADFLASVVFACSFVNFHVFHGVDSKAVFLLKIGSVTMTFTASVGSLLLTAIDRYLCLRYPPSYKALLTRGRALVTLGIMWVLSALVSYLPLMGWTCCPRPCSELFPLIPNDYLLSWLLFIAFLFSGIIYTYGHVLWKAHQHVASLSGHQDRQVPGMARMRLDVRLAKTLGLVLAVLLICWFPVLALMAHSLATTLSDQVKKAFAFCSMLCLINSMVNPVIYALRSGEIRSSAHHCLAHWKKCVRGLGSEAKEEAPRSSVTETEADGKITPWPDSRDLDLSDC

Acetylcholinesterase [3] = target: T2, Acetylcholinesterase (Homo sapiens, UniProt P22303); experiment: Inhibition of human AChE using acetylthiocholine as substrate by Ellman's method
T2 sequence (P22303 whole entry): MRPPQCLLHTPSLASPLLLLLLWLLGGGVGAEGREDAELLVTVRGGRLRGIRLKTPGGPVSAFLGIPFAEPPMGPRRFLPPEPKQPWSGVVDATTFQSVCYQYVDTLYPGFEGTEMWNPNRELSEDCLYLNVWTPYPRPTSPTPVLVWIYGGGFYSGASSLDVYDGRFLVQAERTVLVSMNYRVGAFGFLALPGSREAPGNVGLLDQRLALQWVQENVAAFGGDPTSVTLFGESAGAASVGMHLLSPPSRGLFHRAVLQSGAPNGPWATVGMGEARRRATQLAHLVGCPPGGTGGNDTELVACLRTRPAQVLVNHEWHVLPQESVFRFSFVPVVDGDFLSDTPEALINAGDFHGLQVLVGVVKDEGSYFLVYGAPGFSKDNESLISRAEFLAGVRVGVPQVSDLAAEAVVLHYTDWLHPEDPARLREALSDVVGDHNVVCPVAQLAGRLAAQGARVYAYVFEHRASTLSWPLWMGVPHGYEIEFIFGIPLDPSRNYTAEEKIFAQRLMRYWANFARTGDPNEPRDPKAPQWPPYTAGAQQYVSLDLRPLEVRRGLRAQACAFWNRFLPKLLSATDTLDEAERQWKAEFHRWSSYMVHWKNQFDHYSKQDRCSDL

Cannabinoid receptor 1 = Cannabinoid receptor 1 (Homo sapiens, UniProt P21554); experiment: Displacement of [3H]-CP55940 from human CB1 receptor transfected in HEK-293EBNA cells after 90 mins by luminescence counting analysis; type: cell-based
Sequence of Cannabinoid receptor 1 (P21554 whole entry): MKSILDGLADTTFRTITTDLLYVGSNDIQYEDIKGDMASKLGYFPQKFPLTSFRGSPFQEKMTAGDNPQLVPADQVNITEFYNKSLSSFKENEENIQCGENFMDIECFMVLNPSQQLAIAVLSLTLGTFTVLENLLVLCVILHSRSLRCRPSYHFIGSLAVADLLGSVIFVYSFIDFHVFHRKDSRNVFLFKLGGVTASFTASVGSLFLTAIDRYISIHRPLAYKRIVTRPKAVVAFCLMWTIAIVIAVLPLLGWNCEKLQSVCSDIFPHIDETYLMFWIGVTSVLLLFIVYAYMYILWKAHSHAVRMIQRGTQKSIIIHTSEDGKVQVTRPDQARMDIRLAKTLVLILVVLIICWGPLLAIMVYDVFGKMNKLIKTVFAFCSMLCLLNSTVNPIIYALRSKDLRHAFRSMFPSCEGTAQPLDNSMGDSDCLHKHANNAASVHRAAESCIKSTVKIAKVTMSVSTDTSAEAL

[4] = target: T3, Cannabinoid receptor (Mus musculus) (UniProt P47746+P47936); experiment: Agonist activity at CB1/CB2 receptor in ICR mouse vas deferens assessed as inhibition of electrically induced contractile response at 2.7 X 10^-6 M after 10 mins in presence of AM251 and AM630
T3 sequence (P47746 whole entry, looked up): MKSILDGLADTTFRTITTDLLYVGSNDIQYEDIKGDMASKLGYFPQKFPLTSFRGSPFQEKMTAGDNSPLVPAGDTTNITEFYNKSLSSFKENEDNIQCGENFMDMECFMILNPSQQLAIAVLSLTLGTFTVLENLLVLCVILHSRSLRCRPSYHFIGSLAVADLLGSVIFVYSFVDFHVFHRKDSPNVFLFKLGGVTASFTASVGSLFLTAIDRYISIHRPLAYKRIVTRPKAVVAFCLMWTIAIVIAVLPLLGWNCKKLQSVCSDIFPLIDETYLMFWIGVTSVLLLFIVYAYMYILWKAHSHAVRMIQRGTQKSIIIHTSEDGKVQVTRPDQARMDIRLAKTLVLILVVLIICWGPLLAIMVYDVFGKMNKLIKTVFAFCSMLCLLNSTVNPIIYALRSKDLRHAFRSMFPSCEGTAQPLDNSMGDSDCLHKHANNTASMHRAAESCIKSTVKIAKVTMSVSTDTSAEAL
T3 sequence (P47936 whole entry, looked up): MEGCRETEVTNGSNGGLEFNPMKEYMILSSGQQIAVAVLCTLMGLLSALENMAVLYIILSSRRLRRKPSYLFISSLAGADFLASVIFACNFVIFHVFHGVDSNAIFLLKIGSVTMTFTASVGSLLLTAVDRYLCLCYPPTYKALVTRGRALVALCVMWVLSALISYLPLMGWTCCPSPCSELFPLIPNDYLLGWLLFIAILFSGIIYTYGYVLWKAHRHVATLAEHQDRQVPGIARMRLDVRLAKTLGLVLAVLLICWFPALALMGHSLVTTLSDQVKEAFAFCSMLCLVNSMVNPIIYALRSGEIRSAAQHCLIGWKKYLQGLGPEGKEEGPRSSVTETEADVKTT

[5] = target: T3, Cannabinoid receptor (Mus musculus); experiment: Agonist activity at CB1/CB2 receptor in ICR mouse vas deferens assessed as inhibition of electrically induced contractile response at 2.7 X 10^-6 M after 10 mins in presence of AM251
[6] = target: Cannabinoid receptor 1 (Mus musculus) (UniProt P47746); experiment: Agonist activity at CB1 receptor in ICR mouse vas deferens assessed as inhibition of electrically induced contractile response at 10^-7 to 2 X 10^-5 M after 10 mins
Sequence of Cannabinoid receptor 1 (Mus musculus) (P47746 whole entry): as the sequence (P47746 whole entry, looked up) above

[7] = target: Cannabinoid receptor 1 (Mus musculus) (UniProt P47746); experiment: Agonist activity at CB1 receptor in ICR mouse vas deferens assessed as inhibition of electrically induced contractile response after 10 mins
[8] = Antioxidant activity in phosphate buffer after 15 mins by ORAC-FL method relative to trolox; type: functional
Cholinesterase [9] = target: T1, Cholinesterase; experiment: Competitive inhibition of BuChE (unknown origin) using butyrylthiocholine as substrate by Lineweaver-Burk double reciprocal plot analysis
Cholinesterase [10] = target: T1, Cholinesterase; experiment: Noncompetitive inhibition of BuChE (unknown origin) using butyrylthiocholine as substrate by Lineweaver-Burk double reciprocal plot analysis
Acetylcholinesterase [11] = target: T2, Acetylcholinesterase; experiment: Competitive inhibition of AChE (unknown origin) by Lineweaver-Burk double reciprocal plot analysis
Cholinesterase [12] = target: T1, Cholinesterase; experiment: Mixed-type inhibition of BuChE (unknown origin) using butyrylthiocholine as substrate by Lineweaver-Burk double reciprocal plot analysis

T1 sequence (P06276 whole entry): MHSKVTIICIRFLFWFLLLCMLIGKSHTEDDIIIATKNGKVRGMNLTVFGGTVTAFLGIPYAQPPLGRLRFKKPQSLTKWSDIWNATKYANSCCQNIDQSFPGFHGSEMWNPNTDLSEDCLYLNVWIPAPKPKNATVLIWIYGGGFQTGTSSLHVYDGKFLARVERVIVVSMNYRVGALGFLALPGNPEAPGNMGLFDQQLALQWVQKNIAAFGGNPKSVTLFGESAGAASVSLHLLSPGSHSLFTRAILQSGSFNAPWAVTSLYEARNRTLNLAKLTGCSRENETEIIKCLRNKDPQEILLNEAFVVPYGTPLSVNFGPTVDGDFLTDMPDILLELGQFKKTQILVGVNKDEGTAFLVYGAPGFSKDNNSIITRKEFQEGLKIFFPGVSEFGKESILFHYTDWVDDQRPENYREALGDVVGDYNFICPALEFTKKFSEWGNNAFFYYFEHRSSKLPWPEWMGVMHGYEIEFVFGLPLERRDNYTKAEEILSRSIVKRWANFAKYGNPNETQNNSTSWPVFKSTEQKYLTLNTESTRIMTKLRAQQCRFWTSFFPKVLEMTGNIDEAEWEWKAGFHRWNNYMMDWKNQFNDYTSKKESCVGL
Sequence of Cholinesterase (Equus caballus, UniProt P81908) (P81908 whole entry): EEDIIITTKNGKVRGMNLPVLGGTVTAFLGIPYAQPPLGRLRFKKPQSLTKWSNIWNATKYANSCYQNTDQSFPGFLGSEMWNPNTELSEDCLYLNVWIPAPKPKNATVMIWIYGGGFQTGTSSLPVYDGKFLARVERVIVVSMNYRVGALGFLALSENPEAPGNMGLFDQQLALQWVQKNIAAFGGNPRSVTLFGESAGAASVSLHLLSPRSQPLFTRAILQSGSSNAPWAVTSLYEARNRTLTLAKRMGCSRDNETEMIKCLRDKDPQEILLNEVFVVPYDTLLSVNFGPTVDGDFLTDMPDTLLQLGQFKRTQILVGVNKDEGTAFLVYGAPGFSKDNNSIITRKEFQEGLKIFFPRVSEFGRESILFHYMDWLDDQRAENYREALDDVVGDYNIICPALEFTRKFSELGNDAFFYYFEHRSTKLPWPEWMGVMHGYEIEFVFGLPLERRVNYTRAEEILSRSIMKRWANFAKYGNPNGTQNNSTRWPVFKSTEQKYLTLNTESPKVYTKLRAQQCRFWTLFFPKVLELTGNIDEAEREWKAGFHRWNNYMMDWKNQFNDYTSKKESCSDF

Row | Compound | IC50 (Cholinesterase [1]) | IC50 (Cholinesterase [2]) | Ki (Cannabinoid receptor 2) | IC50 (Acetylcholinesterase [3]) | Ki (Cannabinoid receptor 1) | inhibition [4] | inhibition [5] | inhibition [6] | inhibition [7] | Ratio [8] | Ki (Cholinesterase [9]) | inhibition (Cannabinoid receptor 1) | Ki (Cholinesterase [10]) | inhibition (Acetylcholinesterase [11]) | Ki (Cholinesterase [12])
1 | O=[N+]([O-])c1ccc2c(c1)c(OCc1ccc3ccccc3c1)nn2CCN1CCOCC1 | > 10 µM | > 10 µM | 0.5 µM | > 10 µM | 1.38 µM |  |  |  |  |  |  |  |  |  | 
2 | c1ccc2c(COc3nn(CCN4CCCC4)c4ccccc34)cccc2c1 | 2.83 µM | 6.7 µM | 0.4 µM | > 10 µM | 0.56 µM | Active | Active | Active | Dose-dependent effect | 0.7 | 1.2 µM |  |  |  | 
3 | c1ccc(COc2nn(Cc3ccccc3)c3ccccc23)cc1 | > 25 µM |  | 3.51 µM | 2.9 µM | 2.6 µM |  |  |  |  |  |  |  |  |  | 
4 | O=[N+]([O-])c1ccc2c(c1)c(OCC1CCCCC1)nn2Cc1ccccc1 | > 10 µM | > 10 µM | 0.09 µM | > 10 µM | > 40 µM |  |  |  |  |  |  | 39% |  |  | 
5 | O=[N+]([O-])c1ccc2c(c1)c(OCc1ccc3ccccc3c1)nn2Cc1ccc2ccccc2c1 | > 10 µM | > 10 µM | > 10 µM | > 10 µM | > 10 µM |  |  |  |  |  |  |  |  |  | 
6 | COc1ccc(COc2nn(Cc3ccc(OC)cc3)c3ccccc23)cc1 | > 10 µM | > 10 µM | 0.9 µM | > 10 µM | 2.4 µM |  |  |  |  |  |  |  |  |  | 
7 | Cc1c(C(=O)c2cccc3ccccc23)c2cccc3c2n1[C@H](CN1CCOCC1)CO3 |  |  |  |  |  |  |  | Active |  |  |  |  |  |  | 
8 | O=[N+]([O-])c1ccc2c(c1)c(OCc1cccc3ccccc13)nn2Cc1cccc2ccccc12 | > 10 µM |  | 0.24 µM | 6.7 µM | 3.8 µM |  |  |  |  |  |  |  |  |  | 
9 | Nc1ccc2c(c1)c(OCc1ccccc1)nn2Cc1ccccc1 | > 10 µM | > 10 µM | 1.6 µM |  | 4 µM |  |  |  |  |  |  |  |  |  | 
10 | c1ccc2c(COc3nn(Cc4cccc5ccccc45)c4ccccc34)cccc2c1 | > 10 µM |  | > 10 µM | > 10 µM | > 10 µM |  |  |  |  |  |  |  |  |  | 
11 | COc1ccc(COc2nn(CCN(C(C)C)C(C)C)c3ccccc23)cc1 | 4.8 µM | 2.28 µM | 7.7 µM | > 10 µM | > 40 µM | inactive | inactive |  | Dose-dependent effect | 1 |  |  | 2.6 µM |  | 
12 | CC(C)N(CCn1nc(OCc2cccc3ccccc23)c2ccccc21)C(C)C | 0.1 µM |  | 5.4 µM | > 10 µM | > 40 µM |  |  |  |  |  | 0.028 µM |  |  | Active | 
13 | O=[N+]([O-])c1ccc2c(c1)c(OCc1cccc3ccccc13)nn2CCN1CCCC1 | 4.5 µM |  | 0.13 µM | > 25 µM | 0.6 µM |  |  |  | Dose-dependent effect |  | 2.1 µM |  |  |  | 
14 | CCCCCn1nc(OCc2ccc(OC)cc2)c2cc([N+](=O)[O-])ccc21 | > 10 µM | > 10 µM | 0.49 µM | 9.7 µM | 0.8 µM |  |  |  |  |  |  |  |  |  | 
15 | c1ccc2c(COc3nn(CCN4CCCCC4)c4ccccc34)cccc2c1 | 0.81 µM | 0.91 µM | 0.24 µM | > 10 µM | 3 µM | Active | Active | Active | Dose-dependent effect | 0.5 | 0.22 µM |  |  | Active | 
16 | Nc1ccc2c(c1)c(OCc1ccc3ccccc3c1)nn2CCN1CCCCC1 |  | 1.5 µM | 2 µM | > 10 µM | > 40 µM | inactive | inactive | Active | Dose-dependent effect | 0.8 |  |  |  |  | 0.38 µM
17 | c1ccc2c(c1)c(OCC1CCCCC1)nn2CC1CCCCC1 | > 10 µM | > 10 µM | 1.3 µM | 7.1 µM | 0.2 µM |  |  |  |  |  |  |  |  |  | 
18 | COc1ccc(COc2nn(CCN(C(C)C)C(C)C)c3ccc([N+](=O)[O-])cc23)cc1 | > 100 µM |  | 9 µM | 91 µM | > 40 µM |  |  |  |  |  |  |  |  |  | 
19 | Nc1ccc2c(c1)c(OCc1cccc3ccccc13)nn2CCN1CCCC1 | 3 µM |  | 5 µM | > 25 µM | 11 µM | Active | Active | Active | Dose-dependent effect | 1.3 | 1 µM |  |  |  | 
20 | CCCCCn1nc(OCc2ccc3ccccc3c2)c2cc([N+](=O)[O-])ccc21 | > 10 µM | > 10 µM | 1.37 µM | 8.2 µM | 1.6 µM |  |  |  |  |  |  |  |  |  | 
21 | CCCCCOc1nn(CCCCC)c2ccc([N+](=O)[O-])cc12 | > 10 µM | > 10 µM | 0.68 µM | 4.2 µM | 1.3 µM |  |  |  |  |  |  |  |  |  | 
22 | O=[N+]([O-])c1ccc2c(c1)c(OCc1ccccc1)nn2Cc1ccccc1 | > 10 µM | > 10 µM | 0.4 µM | 7.3 µM | 1.2 µM |  |  |  |  |  |  |  |  |  | 
23 | O=[N+]([O-])c1ccc2c(c1)c(OCc1ccc3ccccc3c1)nn2CCN1CCCCC1 | 3.6 µM | 2.07 µM | 0.5 µM | > 10 µM | 1.3 µM |  |  |  |  |  |  |  |  |  | 2.9 µM
24 | O=[N+]([O-])c1ccc2c(c1)c(OCc1ccc3ccccc3c1)nn2Cc1ccccc1 | > 10 µM | > 10 µM | 0.4 µM | 6.3 µM | > 10 µM |  |  |  |  |  |  |  |  |  | 
25 | c1ccc2cc(COc3nn(CCN4CCCCC4)c4ccccc34)ccc2c1 | 0.97 µM | 1.4 µM | 2 µM | > 10 µM | 1.4 µM | inactive | inactive | Active | Dose-dependent effect | 0.5 |  |  | 1.19 µM |  | 
26 | Brc1ccc2c(c1)c(OCc1ccc3ccccc3c1)nn2CCN1CCCCC1 | 0.19 µM |  | 1.8 µM | > 10 µM | 1.7 µM |  |  |  |  |  | 0.079 µM |  |  |  | 

Reference: ChEMBL document CHEMBL3112400, “Cannabinoid agonists showing BuChE inhibition as potential therapeutic agents for Alzheimer's disease” (Eur J Med Chem, 2014)
